The text below walks through data of patent publication US7192924B2, “Corticotropin releasing factor 2 receptor agonists” (priority 2002, dated 2007).

One test addresses T1, CRF2R (Homo sapiens, UniProt Q13324).
T1 sequence (Q13324 1-411): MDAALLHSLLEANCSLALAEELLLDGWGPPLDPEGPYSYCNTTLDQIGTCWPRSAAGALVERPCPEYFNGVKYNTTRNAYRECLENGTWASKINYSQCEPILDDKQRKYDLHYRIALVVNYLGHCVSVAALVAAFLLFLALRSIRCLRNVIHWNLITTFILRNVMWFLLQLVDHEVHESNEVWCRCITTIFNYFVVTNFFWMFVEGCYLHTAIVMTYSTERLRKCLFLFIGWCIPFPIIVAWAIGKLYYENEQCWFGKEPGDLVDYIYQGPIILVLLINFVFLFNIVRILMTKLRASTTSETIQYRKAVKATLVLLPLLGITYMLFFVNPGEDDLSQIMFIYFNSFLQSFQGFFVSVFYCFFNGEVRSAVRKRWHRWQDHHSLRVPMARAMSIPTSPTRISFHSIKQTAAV
The experiment in a line: CRF2R agonist activity (EC50, Emax), called comparative CRF binding. The test is classed as cell-based. Particulars: read-out: CRF2R EC50. In a few lines:
(§1)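 Agonism is judged from increased cAMP, measured either directly in lysates or through reporter genes under a cAMP responsive element. Cells or membranes express only the receptor of interest, and vehicle-treated cells serve as control.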

The next test deals with T2, CRF1R (Homo sapiens, UniProt P34998).
T2 sequence (P34998 24-415): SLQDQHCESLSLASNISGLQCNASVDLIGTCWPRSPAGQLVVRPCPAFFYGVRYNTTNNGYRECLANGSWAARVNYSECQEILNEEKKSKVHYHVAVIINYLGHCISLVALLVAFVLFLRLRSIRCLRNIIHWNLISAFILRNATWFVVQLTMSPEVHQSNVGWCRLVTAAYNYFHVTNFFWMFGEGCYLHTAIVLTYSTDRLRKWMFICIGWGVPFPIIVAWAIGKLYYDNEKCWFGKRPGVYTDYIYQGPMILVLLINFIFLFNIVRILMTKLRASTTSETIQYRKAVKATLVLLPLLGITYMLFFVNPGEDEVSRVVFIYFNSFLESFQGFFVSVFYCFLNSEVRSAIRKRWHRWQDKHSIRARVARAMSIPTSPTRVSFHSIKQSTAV
The experiment in a line: CRF1R agonist activity (EC50, Emax), called comparative CRF binding. The class given is cell-based. The settings on record: read-out: CRF1R EC50. The method in brief:
as §1

Ends that are not written are not given here. Peptide text beside a SMILES is read from it.

A word on the EC50: it is the concentration at which the effect is half-maximal. As to `CC[C@H](C)[C@H](NC(=O)[C@H](CCC(N)=O)NC(=O)[C@H](C)NC(=O)[C@H](CC(N)=O)NC(=O)[C@H](CCC(N)=O)NC(=O)[C@H](CCC(=O)O)NC(=O)[C@H](C)NC(=O)[C@H](CCCNC(=N)N)NC(=O)[C@H](CCC(=O)O)NC(=O)[C@H](CCCNC(=N)N)NC(=O)[C@H](CCC(N)=O)NC(=O)[C@H](CO)NC(=O)[C@H](CCC(N)=O)NC(=O)[C@@H](NC(=O)[C@H](CCCCN)NC(=O)[C@H](CCC(=O)O)NC(=O)[C@H](CC(C)C)NC(=O)[C@H](CCC(=O)O)NC(=O)[C@H](CC(C)C)NC(=O)[C@H](CC(C)C)NC(=O)[C@@H](NC(=O)[C@H](CCCNC(=N)N)NC(=O)[C@H](CC(C)C)NC(=O)[C@H](CC(C)C)NC(=O)[C@H](CC(C)C)NC(=O)[C@H](CC(C)C)NC(=O)[C@@H]1CCCN1C(=O)[C@H](CC(C)C)NC(=O)[C@H](CC(=O)O)NC(=O)[C@@H](NC(=O)[C@H](CO)NC(=O)[C@H](CC(C)C)NC(=O)[C@H](CO)NC(=O)[C@@H]1CCCN1C(=O)[C@H](CC(N)=O)NC(=O)[C@@H](N)CC(=O)O)[C@@H](C)CC)[C@@H](C)O)[C@@H](C)O)C(=O)N[C@@H](Cc1ccccc1)C(=O)N[C@@H](C)C(=O)N[C@@H](CCC(N)=O)C(=O)N[C@H](C(N)=O)C(C)C` [compound 327] (H-DNPSLSIDLPLLLLRTLLELEKTQSQRERAEQNAQIFAQV-NH2; N-terminus assumed), the EC50 on CRF2R is 28.4 nM; at CRF1R, ≥ 1000 nM.
For the compound `CC[C@H](C)[C@H](NC(=O)[C@H](CCCNC(=N)N)NC(=O)[C@H](C)NC(=O)[C@H](CC(N)=O)NC(=O)[C@H](CCC(N)=O)NC(=O)[C@H](CCC(=O)O)NC(=O)[C@H](C)NC(=O)[C@H](CCCNC(=N)N)NC(=O)[C@H](CCC(=O)O)NC(=O)[C@H](CCCNC(=N)N)NC(=O)[C@H](CCC(N)=O)NC(=O)[C@H](CO)NC(=O)[C@H](CCC(N)=O)NC(=O)[C@@H](NC(=O)[C@H](CCCCN)NC(=O)[C@H](CCC(=O)O)NC(=O)[C@H](CC(C)C)NC(=O)[C@H](CCC(=O)O)NC(=O)[C@H](CC(C)C)NC(=O)[C@H](CC(C)C)NC(=O)[C@@H](NC(=O)[C@H](CCCNC(=N)N)NC(=O)[C@H](CC(C)C)NC(=O)[C@H](CC(C)C)NC(=O)[C@H](CC(C)C)NC(=O)[C@H](CC(C)C)NC(=O)[C@@H]1CCCN1C(=O)[C@H](CC(C)C)NC(=O)[C@H](CC(=O)O)NC(=O)[C@@H](NC(=O)[C@H](CO)NC(=O)[C@H](CC(C)C)NC(=O)[C@H](CO)NC(=O)[C@@H]1CCCN1C(=O)[C@H](CC(N)=O)NC(=O)[C@@H](N)CC(=O)O)[C@@H](C)CC)[C@@H](C)O)[C@@H](C)O)C(=O)N[C@@H](Cc1ccccc1)C(=O)N[C@@H](C)C(=O)N[C@@H](CCCNC(=N)N)C(=O)N[C@H](C(N)=O)C(C)C` [compound 341] (H-DNPSLSIDLPLLLLRTLLELEKTQSQRERAEQNARIFARV-NH2; N-terminus assumed), the EC50 at CRF2R came to 8.83 nM; at CRF1R, 850 nM.
As for `CC[C@H](C)[C@H](NC(=O)[C@H](C)NC(=O)[C@H](CC(N)=O)NC(=O)[C@H](CCC(N)=O)NC(=O)[C@H](CCC(=O)O)NC(=O)[C@H](C)NC(=O)[C@H](CCCNC(=N)N)NC(=O)[C@H](CCC(=O)O)NC(=O)[C@H](CCCNC(=N)N)NC(=O)[C@H](CCC(N)=O)NC(=O)[C@H](CO)NC(=O)[C@H](CCC(N)=O)NC(=O)[C@@H](NC(=O)[C@H](CCCNC(=N)N)NC(=O)[C@H](C)NC(=O)[C@H](CC(C)C)NC(=O)[C@H](CCC(=O)O)NC(=O)[C@H](CC(C)C)NC(=O)[C@H](CC(C)C)NC(=O)[C@@H](NC(=O)[C@H](CCCNC(=N)N)NC(=O)[C@H](CC(C)C)NC(=O)[C@H](CC(C)C)NC(=O)[C@H](Cc1ccccc1)NC(=O)[C@H](CC(C)C)NC(=O)[C@@H]1CCCN1C(=O)[C@H](CC(C)C)NC(=O)[C@H](CC(=O)O)NC(=O)[C@@H](NC(=O)[C@H](CO)NC(=O)[C@H](CC(C)C)NC(=O)[C@H](CO)NC(=O)[C@@H]1CCCN1C(=O)[C@H](CC(N)=O)NC(=O)[C@@H](N)CC(=O)O)[C@@H](C)CC)[C@@H](C)O)[C@@H](C)O)C(=O)N[C@H](C(=O)N[C@@H](Cc1ccccc1)C(=O)N[C@@H](C)C(=O)N[C@@H](CO)C(=O)N[C@H](C(N)=O)C(C)C)[C@@H](C)CC` [compound 178] (H-DNPSLSIDLPLFLLRTLLELARTQSQRERAEQNAIIFASV-NH2; N-terminus assumed), the EC50 was 5.17 nM at CRF2R and ≥ 1000 nM at CRF1R.
In the case of `CC[C@H](C)[C@H](NC(=O)[C@H](C)NC(=O)[C@H](CC(N)=O)NC(=O)[C@H](CCC(N)=O)NC(=O)[C@H](CCC(=O)O)NC(=O)[C@H](C)NC(=O)[C@H](CCCNC(=N)N)NC(=O)[C@H](CCC(=O)O)NC(=O)[C@H](CCCNC(=N)N)NC(=O)[C@H](CCC(N)=O)NC(=O)[C@H](CO)NC(=O)[C@H](CCC(N)=O)NC(=O)[C@@H](NC(=O)[C@H](CCCNC(=N)N)NC(=O)[C@H](C)NC(=O)[C@H](CC(C)C)NC(=O)[C@H](CCC(=O)O)NC(=O)[C@H](CC(C)C)NC(=O)[C@H](CC(C)C)NC(=O)[C@@H](NC(=O)[C@H](CCCNC(=N)N)NC(=O)[C@H](CC(C)C)NC(=O)[C@H](CC(C)C)NC(=O)[C@H](Cc1c[nH]cn1)NC(=O)[C@H](CC(C)C)NC(=O)[C@@H]1CCCN1C(=O)[C@H](CC(C)C)NC(=O)[C@H](CC(=O)O)NC(=O)[C@@H](NC(=O)[C@H](CO)NC(=O)[C@H](CC(C)C)NC(=O)[C@H](CO)NC(=O)[C@@H]1CCCN1C(=O)[C@H](CC(N)=O)NC(=O)[C@@H](N)CC(=O)O)[C@@H](C)CC)[C@@H](C)O)[C@@H](C)O)C(=O)N[C@H](C(=O)N[C@@H](Cc1ccccc1)C(=O)N[C@@H](C)C(=O)N[C@@H](CO)C(=O)N[C@H](C(N)=O)C(C)C)[C@@H](C)CC` [compound 179] (H-DNPSLSIDLPLHLLRTLLELARTQSQRERAEQNAIIFASV-NH2; N-terminus assumed), the concentration giving a half-maximal response (EC50) on CRF2R came to 10.2 nM; at CRF1R, 477 nM.
Consider `CC[C@H](C)[C@H](NC(=O)[C@H](C)NC(=O)[C@H](CC(N)=O)NC(=O)[C@H](CCC(N)=O)NC(=O)[C@H](CCC(=O)O)NC(=O)[C@H](C)NC(=O)[C@H](CCCNC(=N)N)NC(=O)[C@H](CCC(=O)O)NC(=O)[C@H](CCCNC(=N)N)NC(=O)[C@H](CCC(N)=O)NC(=O)[C@H](CO)NC(=O)[C@H](CCC(N)=O)NC(=O)[C@@H](NC(=O)[C@H](CCCNC(=N)N)NC(=O)[C@H](C)NC(=O)[C@H](CC(C)C)NC(=O)[C@H](CCC(=O)O)NC(=O)[C@H](CC(C)C)NC(=O)[C@H](CC(C)C)NC(=O)[C@@H](NC(=O)[C@H](CCCNC(=N)N)NC(=O)[C@H](CC(C)C)NC(=O)[C@H](CC(C)C)NC(=O)[C@H](Cc1ccc(O)cc1)NC(=O)[C@H](Cc1ccc(O)cc1)NC(=O)[C@@H]1CCCN1C(=O)[C@H](CC(C)C)NC(=O)[C@H](CC(=O)O)NC(=O)[C@@H](NC(=O)[C@H](CO)NC(=O)[C@H](CC(C)C)NC(=O)[C@H](CO)NC(=O)[C@@H]1CCCN1C(=O)[C@H](CC(N)=O)NC(=O)[C@@H](N)CC(=O)O)[C@@H](C)CC)[C@@H](C)O)[C@@H](C)O)C(=O)N[C@H](C(=O)N[C@@H](Cc1ccccc1)C(=O)N[C@@H](C)C(=O)N[C@@H](CO)C(=O)N[C@H](C(N)=O)C(C)C)[C@@H](C)CC` [compound 263] (H-DNPSLSIDLPYYLLRTLLELARTQSQRERAEQNAIIFASV-NH2; N-terminus assumed), for which the values for the EC50 on CRF2R and at CRF1R were 36.2 nM and 802 nM, respectively.
On to “NDDPPISIDLPFHLLRNMIEMARIENEREQAGLNAKYLAEV-NH2 [compound 262]”, for which the EC50 on CRF2R is ≥ 100 nM; on CRF1R, 408 nM.
On the same counts, the results for `CC[C@H](C)[C@H](NC(=O)[C@H](CCCNC(=N)N)NC(=O)[C@H](C)NC(=O)[C@H](CC(N)=O)NC(=O)[C@H](CCC(N)=O)NC(=O)[C@H](CCC(=O)O)NC(=O)[C@H](C)NC(=O)[C@H](CCCNC(=N)N)NC(=O)[C@H](CCC(=O)O)NC(=O)[C@H](CCCNC(=N)N)NC(=O)[C@H](CCC(N)=O)NC(=O)[C@H](CO)NC(=O)[C@H](CCC(N)=O)NC(=O)[C@@H](NC(=O)[C@H](CCCCN)NC(=O)[C@H](CCC(=O)O)NC(=O)[C@H](CC(C)C)NC(=O)[C@H](CCC(=O)O)NC(=O)[C@H](CC(C)C)NC(=O)[C@H](CC(C)C)NC(=O)[C@@H](NC(=O)[C@H](CCCNC(=N)N)NC(=O)[C@H](CC(C)C)NC(=O)[C@H](CC(C)C)NC(=O)[C@@H](NC(=O)[C@H](CC(C)C)NC(=O)[C@@H]1CCCN1C(=O)[C@H](CC(C)C)NC(=O)[C@H](CC(=O)O)NC(=O)[C@@H](NC(=O)[C@H](CO)NC(=O)[C@H](CC(C)C)NC(=O)[C@H](CO)NC(=O)[C@@H]1CCCN1)[C@@H](C)CC)[C@@H](C)CC)[C@@H](C)O)[C@@H](C)O)C(=O)N[C@@H](Cc1ccccc1)C(=O)N[C@@H](C)C(=O)N[C@@H](CCCNC(=N)N)C(=O)N[C@H](C(N)=O)C(C)C` [compound 332] (H-PSLSIDLPLILLRTLLELEKTQSQRERAEQNARIFARV-NH2; N-terminus assumed) are 9.95 nM and ≥ 1000 nM.
